Laboratory results as given in patent US6706747B2, “Conformationally rigid bicyclic and adamantane derivatives useful as α2-adrenergic blocking agents” (Allergan, Inc., priority 1994, dated 2004).
Read-outs that look alike come from different tables or passages of the source.

Key:
[1] = target: T1, human α2A (CHO-C10) receptor (Homo sapiens, UniProt P08913); assay: Radioligand binding, [3H]rauwolscine, CHO-C10 cell membranes; details: CHO-C10, 22° C., 30 minutes
T1 construct: expressed in transfected cells; host or cells: CHO (CHO-C10)
T1 sequence (P08913 1-465): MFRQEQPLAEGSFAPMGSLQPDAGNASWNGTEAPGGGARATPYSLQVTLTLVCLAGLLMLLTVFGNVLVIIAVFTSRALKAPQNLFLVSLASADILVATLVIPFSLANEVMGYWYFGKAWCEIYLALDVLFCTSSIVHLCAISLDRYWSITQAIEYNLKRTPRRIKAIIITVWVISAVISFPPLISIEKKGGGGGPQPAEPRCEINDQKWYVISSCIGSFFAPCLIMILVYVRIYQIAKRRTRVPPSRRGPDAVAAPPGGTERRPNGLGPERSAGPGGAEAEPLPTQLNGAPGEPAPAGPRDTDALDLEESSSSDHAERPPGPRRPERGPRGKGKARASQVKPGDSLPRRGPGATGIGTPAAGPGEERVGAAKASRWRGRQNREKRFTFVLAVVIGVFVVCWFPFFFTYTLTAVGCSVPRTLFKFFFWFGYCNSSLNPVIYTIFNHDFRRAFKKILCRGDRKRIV
Protocol: (§1) Cell preparation: HT-29 and chinese hamster ovary (CHO) cells expressing the human α2A (CHO—C10) receptor and CHO cells (CHO—RNG) expressing the rat α2B adrenoceptor were grown to near confluency in Dulbecco's modified Eagle's medium supplemented with 10% fetal bovine serum using standard cell culture methods. Cells were harvested by scraping and placed into cold buffer of the following composition: 50 mM Tris-HCl, 5 mM EDTA, pH 7.4). Cells were then homogenized with a Polytron homogenizer for 2×10 secs at setting # 7, arid centrifuged for 20 minutes at 49,000×g. The pellet fraction was washed (resuspended in Tris-HCl, pH 8 buffer and centrifuged for 15-20 minutes at 49,000×g) 2 times and stored at −100° C. until binding assay.
(§2) Binding studies: The radioligands [^3H]rauwolscine (specific activity 80 Ci/mmol) and [^3H]prazosin (specific activity 76 Ci/mmol) were obtained from New England Nuclear, Boston, Mass. Frozen membrane pellet was resuspended in 25 mM glycine/glycine, pH 7.4 and incubated with radioligand under the following conditions: CHO—C10, CHO—RNG, HT-29-[^3H]rauwolscine, 22° C., 30 minutes; RKC-[^3H]rauwolscine, 0° C., 120 minutes; and, HCC-[^3H]prazosin, 22° C., 30 minutes in a final volume of 500 μl. At the end of the incubation period, the samples were filtered through glass fiber filters (Whatman GF/B) in a 96 well cell harvester and rapidly washed four times with 4 ml of ice-cold 50 mM, Tris-HCl buffer. The filters were then oven dried and transferred to scintillation vials containing 5 ml of Beckman's Ready Protein® scintillation cocktail for counting. […] Protein concentrations were determined with a protein assay kit from Bio Rad. Binding isotherms, equilibrium dissociation and affinity constants were analyzed and determined by the non-linear least squares curve fitting programs AccuFit Competition/Saturation by Beckman.
(§3) Frozen membrane pellet was resuspended either 50 mM tris, 2 mM EGTA, 1 mM MgCl2, pH7.5 (RbKC, RbICB-[^3H]brimonidine); 50 mM tris, 0.5 mM EDTA, 5 mM NaCl, pH 7.7 (RbICB-[^3H]rauwolscine); 25 mM glycine/glycine, pH 7.4 (RtKC, CHO—C10, CH—RNG, HT-29, HCC) or 50 mM tris, 0.1 mM MnCl2, pH7.7 (RtCC). Membrane protein homogenate (75-200 μg) was incubated with radioligand under the following conditions: RbKC and RbICB-[^3H]rauwolscine, 22° C., 45 minutes; RtCC and RbICB-[^3H]brimondine, 22° C., 90 minutes; CHO—C10, CHO—RNG and HT-29-[^3H]rauwolscine, 22° C., 30 minutes; HCC—[^3H]prazosin, 22° C., 30 minutes; and, in a final volume of 250 or 500 μl. At the end of the incubation period, the samples were filtered through glass fiber filters (Whatman GF/B) in a 24 or 96 well cell harvester and rapidly washed four times with 4 mls of iced-cold 50 mM Tris-HCl buffer. The filters were then oven dried and transferred to scintillation vials containing 10 mls of, Beckman's Ready Protein® scintillation cocktail for counting. […] Protein concentrations were determined with a protein assay kit from Bio Rad. Binding isotherms, equilibrium dissociation and affinity constants were analyzed and determined by the non-linear least squares curve fitting programs EBDA (BioSoft) or AccuFit Competition/Saturation by Beckman.
(§4) Cell preparation: Chinese hamster ovary (CHO) cells expressing the human α2A (CHO—C10) and the rat α2B (CHO—RNG) adrenoceptors were grown to near confluency in Dulbecco's modified Eagle's medium supplemented with 10% fetal bovine serum using standard cell culture methods. Cells were harvested by scraping and placed into cold buffer of the following composition: 50 mM Tris-HCl, 5 mM EDTA, pH 7.4). Cells were then homogenized with a Polytron homogenizer for 2×10 secs at setting #7, and centrifuged for 20 minutes at 49,000×g.

α1 = assay: Radioligand binding, [3H]prazosin, human cerebral cortex (HCC) membranes; details: 22° C., 30 minutes
Protocol: Tissue preparation: Membrane suspensions were prepared from human cerebral cortex (HCC) obtained from the UCI Organ and Tissue Bank and rat kidney cortex (RKC). Briefly, tissues (1 g) were homogenized in 25 ml of iced-cold 5 mM tris, pH 7.4 with a Polytron homogenizer for 30 secs at setting# 7, and centrifuged for. 10-12 minutes at 300×g at 4° C. The supernatant was filtered: through 2 layers of gauze and diluted 1:2 with 50 mM Tris-HCI buffer, pH 7.4, then centrifuged at 49,000×g for 20 minutes. The pellet fraction was washed 3 times (resuspended in Tris-HCl buffer and centrifuged for 20 minutes at 49,000×g). The pellet was then stored at −80° C. until the binding assay.
as §2, §3
The radioligands [^3H]rauwolscine (specific activity 80 Ci/mmol) and [^3H]prazosin (specific activity 76 Ci/mmol) were obtained from New England Nuclear, Boston, Mass. Frozen membrane pellet was resuspended in 25 mM glycine/glycine, pH 7.4 and incubated with radioligand under the following conditions: CHO—C10, CHO—RNG-[^3H]rauwolscine, 22° C., 30 minutes; and, HCC—[^3H]prazosin, 22° C., 30 minutes in a final volume of 500 ul.

[2] = target: T2, rat α2B adrenoceptor (CHO-RNG) (Rattus norvegicus, UniProt P19328); assay: Radioligand binding, [3H]rauwolscine, CHO-RNG cell membranes; details: 22° C., 30 minutes
T2 construct: expressed in transfected cells; host or cells: CHO (CHO-RNG)
T2 sequence (P19328 1-453): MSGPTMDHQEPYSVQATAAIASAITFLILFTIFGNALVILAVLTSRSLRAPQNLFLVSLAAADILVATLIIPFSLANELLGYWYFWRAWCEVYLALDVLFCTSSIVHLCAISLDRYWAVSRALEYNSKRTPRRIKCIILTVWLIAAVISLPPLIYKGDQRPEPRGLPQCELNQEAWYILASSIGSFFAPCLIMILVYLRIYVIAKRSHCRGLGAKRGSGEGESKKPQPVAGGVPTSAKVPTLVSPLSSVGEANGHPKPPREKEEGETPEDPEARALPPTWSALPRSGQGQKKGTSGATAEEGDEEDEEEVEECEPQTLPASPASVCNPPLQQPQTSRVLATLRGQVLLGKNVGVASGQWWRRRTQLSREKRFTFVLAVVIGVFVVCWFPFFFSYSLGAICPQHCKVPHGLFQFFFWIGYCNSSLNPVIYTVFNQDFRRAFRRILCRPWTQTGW
Protocol: as §1, §2, §3, §4

[3] = read-out: Ki (nM) α2A (CHO-C10)
[4] = read-out: Ki (nM) α2B (CHO-RNG)

Compound | Ki [1, 3] | Ki (α1) | Ki [2, 4] | Ki ([1]; Ki (nM) α2A (CHO-C10)) | Ki ([2]; Ki (nM) α2B (CHO-RNG))
c1ccc(CCNC2=NCCO2)cc1 | 1750 nM | 11100 nM | 4170 nM |  | 
c1ccc(C2C3CCC(C3)C2NC2=NCCN2)cc1 (centres unmarked) |  |  |  | 14.3 nM | 72 nM
CC1(C)C2CCC1(C)C(NC1=NCCO1)C2 (centres unmarked) | 368 nM | > 10000 nM | 1930 nM |  | 
CCC1C2CCC(C2)C1N (centres unmarked) | 67200 nM | > 100000 nM | 57100 nM |  | 
CCC1C2CCC(C2)C1NC1=NCCO1 (centres unmarked) | 59 nM | 24800 nM | 616 nM |  | 
C1COC(NC2CC3CCC2CC3)=N1 (centres unmarked) | 119 nM | 32500 nM | 770 nM |  | 
NC1C2CCC(C2)C1c1ccccc1 (centres unmarked) | 6570 nM | 11000 nM | 6100 nM |  | 
c1ccc(C2C3CCC(C3)C2NC2=NCCO2)cc1 (centres unmarked) [drawing 7] | 3.1 nM | 1860 nM | 7.8 nM |  | 
C1COC(NC23CC4CC(CC(C4)C2)C3)=N1 [drawing 26] | 102 nM | > 10000 nM | 358 nM |  | 
c1ccc(C2C3CCC(C3)C2NC2=NCCO2)cc1 (centres unmarked) [drawing 10] | 1.9 nM | 73 nM | 27 nM |  | 
CC(C)C1C2CCC(C2)C1N (centres unmarked) | 23300 nM | > 100000 nM | 20900 nM |  | 
C1COC(NC23CC4CC(CC(C4)C2)C3)=N1 [drawing 27] | 352 nM | 35000 nM | 1840 nM |  | 

Further molecules by falling Ki [1, 3], results first:

Ki [1, 3] | Ki (α1) | Ki [2, 4] | Compound | Ki ([1]; Ki (nM) α2A (CHO-C10)) | Ki ([2]; Ki (nM) α2B (CHO-RNG))
25 nM | 8600 nM | 256 nM | CCCC1C2CCC(C2)C1NC1=NCCO1 (centres unmarked) [drawing 17] |  | 
9.8 nM | 8850 nM | 28.1 nM | CCCC1C2CCC(C2)C1NC1=NCCO1 (centres unmarked) [drawing 18] |  | 
4.2 nM | > 10000 nM | 11.5 nM | C1COC(NC2CC3CCC2C3)=N1 (centres unmarked) |  | 
1.1 nM | 1860 nM | 4.6 nM | c1cc2c(cc1C1C3CCC(C3)C1NC1=NCCO1)OCO2 (centres unmarked) |  | 
0.6 nM | 1600 nM | 8.3 nM | CCCC1CCCCC1NC1=NCCO1 (centres unmarked) |  | 
